Legend:
[1] = molecular target: T1, human TYK2 (JH2domain-pseudokinase) (Homo sapiens, UniProt P29597); assay: TYK2 JH2 domain binding assay (KINOMEscan); details: duplicate
T1 construct: host or cells: transiently transfected HEK293 cells; unpurified extract
Procedure: Binding constants for the compounds described herein against the JH2 domain were determined by the following protocol for a KINOMEscan® assay (DiscoveRx). A fusion protein of a partial length construct of human TYK2 (JH2domain-pseudokinase) (amino acids G556 to D888 based on reference sequence NP_003322.3) and the DNA binding domain of NFkB is expressed in transiently transfected HEK293 cells. From these HEK 293 cells, extracts are prepared in M-PER extraction buffer (Pierce) in the presence of Protease Inhibitor Cocktail Complete (Roche) and Phosphatase Inhibitor Cocktail Set II (Merck) per manufacturers' instructions. The TYK2 (JH2domain-pseudokinase) fusion protein is labeled with a chimeric double-stranded DNA tag containing the NFkB binding site fused to an amplicon for qPCR readout, which is added directly to the expression extract (the final concentration of DNA-tag in the binding reaction is 0.1 nM).
The liganded beads are blocked with excess biotin and washed with blocking buffer (SeaBlock (Pierce), 1% BSA, 0.05% Tween 20, 1 mM DTT) to remove unbound ligand and to reduce nonspecific binding.
Extracts are used directly in binding assays without any enzyme purification steps at a ≥10,000-fold overall stock dilution (final DNA-tagged enzyme concentration <0.1 nM). Extracts are loaded with DNA-tag and diluted into the binding reaction in a two-step process. First extracts are diluted 1:100 in 1× binding buffer (PBS/0.05% Tween 20/10 mM DTT/0.1% BSA/[…] sonicated salmon sperm DNA) containing 10 nM DNA-tag. This dilution is allowed to equilibrate at room temperature for 15 minutes and then subsequently diluted 1:100 in 1× binding buffer. Test compounds were prepared as 111×stocks in 100% DMSO. […] The compounds are then diluted directly into the assays such that the final concentration of DMSO was 0.9%. All reactions are performed in polypropylene 384-well plates. Each was a final volume of 0.02 mL.
Assays are incubated with shaking for 1 hour at room temperature. Then the beads are pelleted and washed with wash buffer (1×PBS, 0.05% Tween 20) to remove displaced kinase and test compound. […] The kinase concentration in the eluates was measured by qPCR. qPCR reactions are assembled by adding […] of kinase eluate to […] of qPCR master mix containing […] amplicon primers and […] amplicon probe. The qPCR protocol consisted of a 10 minute hot start at 95° C., followed by 35 cycles of 95° C. for 15 seconds, 60° C. for 1 minute.
Test compounds are prepared as 111×stocks in 100% DMSO. […] The compounds are then diluted directly into the assays such that the final concentration of DMSO was 0.9%. The Kds are determined using a compound top concentration of 30,000 nM. Kd measurements are performed in duplicate.
Binding constants (Kds) were calculated with a standard dose-response curve using the Hill equation: […]
The Hill Slope was set to −1. Curves were fitted using a non-linear least square fit with the Levenberg-Marquardt algorithm (Levenberg, K., A method for the solution of certain non-linear problems in least squares, Q. Appl. Math. 2, 164-168 (1944)).

[2] = system: JAK2/TYK2 (IL-12 induced pSTAT4); assay: IL-12 induced pSTAT4 in human PBMC; type: cell-based; details: IL-12 10 ng/ml
Procedure: (§1) Fresh Human PBMCs were resuspended in RPMI 1640 medium with 10% FBS. Cells were seeded in a round bottom 96-well plate at the concentration of 200,000 cells/well. A 10-point dilution series of test compound (top dose 10 uM, 1:5 dilution) was added to the well using the liquid dispenser (Tecan D300e) and incubated for 1 hour at 37 C. Then human IL-12 recombinant protein (R&D Systems) was added to the well at the final concentration of 10 ng/ml and incubated for 15 minutes at 37 C. Cell lysates were prepared and analyzed by Phospho STAT4 (Tyr693) Kit (Meso Scale Discovery) following manufacturer's protocol.
For calculation of the inhibition rate, the relative pSTAT4 signal of each well=pSTAT4 signal of each well−the average pSTAT4 signal of baseline.
The inhibition %=(the average pSTAT4 signal of IL-12 treatment wells—the relative of pSTAT4 signal in each compound containing well)/the average pSTAT4 signal of IL-12 treatment wells*100%
(§2) The curve was plotted as the inhibition % (y-axis) vs. compounds concentration (x-axis) and was fitted with log(inhibitor) vs. normalized response—Variable slope by GraphPad Prism7.0.

[3] = system: INFα induced pSTAT3; assay: INFα induced pSTAT3 in human PBMC; type: cell-based; details: INFα 5000 units/ml, read-out: p-STAT3 IC50
Procedure: as §1, with “INFα” for “IL-12”, “5000 units/ml” for “10 ng/ml”, “STAT3 (Tyr705) cellular kit (Cisbio) or Phospho STAT5” for “STAT4”
(§3) For calculation of the inhibition rate, the relative pSTAT signal of each well=pSTAT signal of each well−the average pSTAT signal of baseline.
(§4) The inhibition %=(the average pSTAT signal of INFα treatment wells—the relative of pSTAT signal in each compound containing well)/the average pSTAT signal of INFα treatment wells * 100%
as §2

[4] = system: INFα induced pSTAT5; assay: INFα induced pSTAT5 in human PBMC; type: cell-based; details: Homo sapiens, PBMC, INFα 5000 units/ml, read-out: p-STAT5 IC50
Procedure: as §1, with “INFα” for “IL-12”, “5000 units/ml” for “10 ng/ml”, “STAT3 (Tyr705) cellular kit (Cisbio) or Phospho STAT5” for “STAT4”
as §3, §4, §2

[5] = Pharmacokinetic studies in Sprague Dawley rats; type: in vivo; details: rat, plasma, male Sprague Dawley rats
Procedure: The pharmacokinetics of test compounds were evaluated in male Sprague Dawley rats when administered via oral gavage and IV injection. The test compound was suspended in 0.5% methylcellulose for oral gavage and dissolved in 5% DMSO/5% Solutol/90% saline for IV injection. The animals were fasted overnight before administration. Plasma samples were collected predose and at 0.5, 1, 3, 6, 9, 12, and 24 hours postdose. The samples were analyzed by LC/MS/MS and the concentration of test compound at each timepoint was determined by linear regression. Pharmacokinetic parameters were calculated from the plasma concentrations using Pheonix WinNonlin.

[6] = molecular target: T2, JAK1 (JH2 domain) (Homo sapiens, UniProt P23458); assay: JAK1 JH2 domain binding assay (KINOMEscan)
T2 construct: inferred from 'similar to the method' for TYK2 JH2; DiscoverX (KINOMEscan)
T2 sequence (P23458 583-855 limits assumed): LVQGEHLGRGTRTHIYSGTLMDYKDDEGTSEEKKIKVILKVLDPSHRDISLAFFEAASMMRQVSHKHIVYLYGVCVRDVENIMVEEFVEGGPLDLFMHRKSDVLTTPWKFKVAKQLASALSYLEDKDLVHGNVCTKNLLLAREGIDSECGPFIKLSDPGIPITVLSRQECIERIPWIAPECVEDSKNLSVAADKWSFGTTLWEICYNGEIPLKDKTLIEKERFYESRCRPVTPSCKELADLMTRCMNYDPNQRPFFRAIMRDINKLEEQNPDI

[7] = molecular target: T3, JAK2 (JH1 domain) (Homo sapiens, UniProt O60674); assay: JAK2 JH1 domain binding assay (KINOMEscan)
T3 construct: inferred from 'similar to the method' for TYK2 JH2; DiscoverX (KINOMEscan)
T3 sequence (O60674 849-1124 limits assumed): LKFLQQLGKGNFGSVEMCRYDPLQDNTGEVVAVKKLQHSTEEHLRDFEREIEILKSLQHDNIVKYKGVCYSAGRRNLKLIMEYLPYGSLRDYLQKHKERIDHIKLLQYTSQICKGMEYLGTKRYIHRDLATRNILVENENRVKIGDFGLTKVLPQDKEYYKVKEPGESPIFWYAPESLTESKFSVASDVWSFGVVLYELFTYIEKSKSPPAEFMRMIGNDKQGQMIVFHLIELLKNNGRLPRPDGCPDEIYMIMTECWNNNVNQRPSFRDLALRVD

[8] = system: IL-2-induced pSTAT5; assay: IL-2-induced pSTAT5 in human PBMC; type: cell-based; details: 20 ng/ml of IL-2
Procedure: (§5) Similar to the method for INFα induced pSTAT5 in human PBMC described above, these assays were performed to check if test compounds have cross-activity to JAK1. JAK2 and JAK3 pathways in human PBMC. The procedure is as described with change of stimuli to 10 ng/ml of GM-CSF or 20 ng/ml of IL-2.

[9] = system: GM-CSF-induced pSTAT5; assay: GM-CSF-induced pSTAT5 in human PBMC; type: cell-based; details: 10 ng/ml of GM-CSF
Procedure: as §5

T1 sequence (P29597 556-888): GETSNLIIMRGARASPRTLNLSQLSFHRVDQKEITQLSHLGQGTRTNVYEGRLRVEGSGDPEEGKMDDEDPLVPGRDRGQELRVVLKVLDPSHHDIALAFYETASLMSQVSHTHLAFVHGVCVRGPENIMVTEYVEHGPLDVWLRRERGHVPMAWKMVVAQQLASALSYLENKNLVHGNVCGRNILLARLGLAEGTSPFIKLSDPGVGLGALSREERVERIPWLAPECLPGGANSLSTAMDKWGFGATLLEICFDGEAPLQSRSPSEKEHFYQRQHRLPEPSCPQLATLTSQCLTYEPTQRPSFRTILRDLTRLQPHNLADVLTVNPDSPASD

| Structure (SMILES) | Kd [1] | IC50 [2] | IC50 [4] | IC50 [8] | further results |
| --- | --- | --- | --- | --- | --- |
| CNc1cc2nc3c(cnn13)C(=O)NCCOCc1cnc(OC)c(c1)N2 [Example 1] | 0.24 nM | 281 nM |  |  | IC50 [3]: 87.5 nM |
| CNc1cc2nc3c(cnn13)C(=O)NCCOCc1ccc(OC)c(c1)N2 [Example 2] | 0.14 nM | 12.2 nM |  |  |  |
| CNc1cc2nc3c(cnn13)C(=O)NCCCOc1ccc(OC)c(c1)N2 [Example 3] | 0.96 nM | 1150 nM |  |  | IC50 [3]: 1460 nM |
| CNc1cc2nn3c(cnc13)C(=O)NCCCOc1ccc(OC)c(c1)N2 [Example 4] | 0.38 nM | 16.1 nM |  |  |  |
| CNc1cc2nn3c(cnc13)C(=O)NC(C)COCc1ccc(OC)c(c1)N2 (stereo not drawn) [Example 7] | 0.0071 nM |  | 2.3 nM |  | AUC ([5]; iv, I.V. (1 mg/kg)): 318 ± 30 ng·h/mL; C0 ([5]; iv, I.V. (1 mg/kg)): 1230 ± 153 ng/mL; clearance ([5]; iv, I.V. (1 mg/kg)): 52.4 ± 5.3 mL/min/kg; half-life ([5]; iv, I.V. (1 mg/kg)): 18 ± 0.96 min; Vd ([5]; iv, I.V. (1 mg/kg), read-out: Vdss): 0.956 ± 0.1 L/kg; AUC ([5]; Oral (5 mg/kg)): 84.9 ± 36 ng·h/mL; Cmax ([5]; Oral (5 mg/kg)): 18.2 ± 3.1 ng/mL; Tmax ([5]; Oral (5 mg/kg)): 40 ± 17.4 min; bioavailability ([5]; Oral (5 mg/kg)): 5.34 ± 2.3%; half-life ([5]; Oral (5 mg/kg)): 238 ± 66 min |
| [2H]C([2H])([2H])NC(=O)c1nnc(NC(=O)C2CC2)cc1Nc1cccc(-c2ncn(C)n2)c1OC [control, BMS-986165, reference compound] |  |  |  | 442 nM | IC50 [9]: 1310 nM |

More lines, main results first:

| Kd [1] | IC50 [2] | IC50 [4] | IC50 [8] | Structure (SMILES) | further results |
| --- | --- | --- | --- | --- | --- |
| 0.0023 nM |  | 1.2 nM | > 10000 nM | CNc1cc2nc3c(cnn13)C(=O)N[C@H](C)COCc1ccc(C(F)(F)F)c(c1)N2 [Example 10] | Kd [6]: 430 nM; Kd [7]: 7300 nM |
|  |  | 8.7 nM | 38500 nM | CNc1cc2nn3c(cnc13)C(=O)N[C@H](C)COCc1cc(c(OC)c(F)c1F)N2 [Example 19, (7R,E)-3^4,3^5-difluoro-3^6-methoxy-7-methyl-1^8-(methylamino)-5-oxa-2,8-diaza-1(6,3)-imidazo[1,2-b]pyridazina-3(1,3)-benzenacyclononaphan-9-one] |  |
|  |  | 0.5 nM | 9390 nM | CNc1cc2nn3c(cnc13)C(=O)N[C@H](C)COCc1cc(c3nn(C)cc3c1)N2 [Example 24] |  |

Reference: patent US20250276977A1, “TYK2 INHIBITORS AND USES THEREOF” (Alumis Inc., priority 2019, published 2025)
